From patent US8822698B2, “Aminoacid derivatives, their process of preparation and their therapeutical uses as inhibitors of oncogenic signals by the Met family” (Universite D'Aix-Marseille, priority 2009, dated 2014)

Key:
Test in all cases: NCI 60 human tumour cell line screen
Assay type in all cases: cell-based
A498 = conditions: conc. 10^−5M; A498, Renal Cancer
Text: (§1) Compound of example 4 was screened in the NCI 60 human tumour cell line anticancer drug screen (Shoemaker et al Nature reviews 6, 2006, 813-823).

A549/ATCC = conditions: conc. 10^−5M, Non-Small Cell Lung Cancer
Text: as §1

ACHN = conditions: conc. 10^−5M, Renal Cancer
Text: as §1

BT-549 = conditions: conc. 10^−5M; BT-549, Breast Cancer
Text: as §1

CAK I-1 = conditions: conc. 10^−5M; CAK I-1, Renal Cancer
Text: as §1

COLO 205 = conditions: conc. 10^−5M; COLO 205, Colon Cancer
Text: as §1

EKVX = conditions: conc. 10^−5M, Non-Small Cell Lung Cancer
Text: as §1

HCC-2998 = conditions: conc. 10^−5M; HCC-2998, Colon Cancer
Text: as §1

HCT-15 = conditions: conc. 10^−5M; HCT-15, Colon Cancer
Text: as §1

HL-60(TB) = conditions: conc. 10^−5M, Leukemia
Text: as §1

HOP-62 = conditions: conc. 10^−5M; HOP-62, Non-Small Cell Lung Cancer
Text: as §1

HOP-92 = conditions: conc. 10^−5M; HOP-92, Non-Small Cell Lung Cancer
Text: as §1

HS 578T = conditions: conc. 10^−5M, Breast Cancer
Text: as §1

HT29 = conditions: conc. 10^−5M; HT29, Colon Cancer
Text: as §1

IGROV 1 = conditions: conc. 10^−5M; IGROV 1, Ovarian Cancer
Text: as §1

K-562 = conditions: conc. 10^−5M; K-562, Leukemia
Text: as §1

KM12 = conditions: conc. 10^−5M; KM12, Colon Cancer
Text: as §1

LOX IMVI = conditions: conc. 10^−5M, Melanoma
Text: as §1

MCF7 = conditions: conc. 10^−5M; MCF7, Breast Cancer
Text: as §1

MDA-MB-231/ATCC = conditions: conc. 10^−5M, Breast Cancer
Text: as §1

MOLT-4 = conditions: conc. 10^−5M; MOLT-4, Leukemia
Text: as §1

NCl-H322M = conditions: conc. 10^−5M, Non-Small Cell Lung Cancer
Text: as §1

NCl•H226 = conditions: conc. 10^−5M; NCl•H226, Non-Small Cell Lung Cancer
Text: as §1

OVCAR-3 = conditions: conc. 10^−5M; OVCAR-3, Ovarian Cancer
Text: as §1

OVCAR-8 = conditions: conc. 10^−5M; OVCAR-8, Ovarian Cancer
Text: as §1

PC-3 = conditions: conc. 10^−5M; PC-3, Prostate Cancer
Text: as §1

RPMI -8226 = conditions: conc. 10^−5M; RPMI -8226, Leukemia
Text: as §1

RXF 393 = conditions: conc. 10^−5M; RXF 393, Renal Cancer
Text: as §1

SF-268 = conditions: conc. 10^−5M; SF-268, CNS Cancer
Text: as §1

SF-539 = conditions: conc. 10^−5M; SF-539, CNS Cancer
Text: as §1

SK-MEL-28 = conditions: conc. 10^−5M; SK-MEL-28, Melanoma
Text: as §1

SK-MEL-2 = conditions: conc. 10^−5M; SK-MEL-2, Melanoma
Text: as §1

SK-MEL-5 = conditions: conc. 10^−5M; SK-MEL-5, Melanoma
Text: as §1

SK-OV-3 = conditions: conc. 10^−5M; SK-OV-3, Ovarian Cancer
Text: as §1

SN12C = conditions: conc. 10^−5M, Renal Cancer
Text: as §1

SNB-19 = conditions: conc. 10^−5M; SNB-19, CNS Cancer
Text: as §1

SW-620 = conditions: conc. 10^−5M; SW-620, Colon Cancer
Text: as §1

T-47D = conditions: conc. 10^−5M, Breast Cancer
Text: as §1

TK-10 = conditions: conc. 10^−5M; TK-10, Renal Cancer
Text: as §1

UACC-257 = conditions: conc. 10^−5M; UACC-257, Melanoma
Text: as §1

UACC-62 = conditions: conc. 10^−5M; UACC-62, Melanoma
Text: as §1

UO-31 = conditions: conc. 10^−5M; UO-31, Renal Cancer
Text: as §1

## O=C(Cc1cc(C(F)(F)F)cc(C(F)(F)F)c1)N[C@@H](Cc1ccccc1)C(=O)Nc1ccc(-c2cn3c(n2)sc2ccccc23)cc1 [Example 4, (S)-2-(3,5-bis(trifluoromethyl)phenylacetamido)-3-phenyl-N-[4-(imidazo[2,1-b]benzothiazol-2-yl)phenyl]propanamide]
A498
  Growth Percent: 120.10%
A549/ATCC
  Growth Percent: 31.71%
ACHN
  Growth Percent: 81.23%
BT-549
  Growth Percent: 82.05%
CAK I-1
  Growth Percent: 53.37%
COLO 205
  Growth Percent: 71.04%
EKVX
  Growth Percent: 15.48%
HCC-2998
  Growth Percent: 98.28%
HCT-15
  Growth Percent: 44.16%
HL-60(TB)
  Growth Percent: 79.95%
HOP-62
  Growth Percent: 80.02%
HOP-92
  Growth Percent: 71.89%
HS 578T
  Growth Percent: 16.75%
HT29
  Growth Percent: 18.28%
IGROV 1
  Growth Percent: 13.32%
K-562
  Growth Percent: 63.10%
KM12
  Growth Percent: 16.15%
LOX IMVI
  Growth Percent: 26.60%
MCF7
  Growth Percent: 59.09%
MDA-MB-231/ATCC
  Growth Percent: 17.15%
MOLT-4
  Growth Percent: 43.46%
NCl-H322M
  Growth Percent: 28.70%
NCl•H226
  Growth Percent: 90.93%
OVCAR-3
  Growth Percent: 2.50%
OVCAR-8
  Growth Percent: 3.54%
PC-3
  Growth Percent: 38.29%
RPMI -8226
  Growth Percent: 66.73%
RXF 393
  Growth Percent: 47.02%
SF-268
  Growth Percent: 29.28%
SF-539
  Growth Percent: 36.76%
SK-MEL-28
  Growth Percent: 26.28%
SK-MEL-2
  Growth Percent: 45.85%
SK-MEL-5
  Growth Percent: 10.83%
SK-OV-3
  Growth Percent: 96.62%
SN12C
  Growth Percent: 47.40%
SNB-19
  Growth Percent: 69.84%
SW-620
  Growth Percent: 12.13%
T-47D
  Growth Percent: 67.66%
TK-10
  Growth Percent: 61.11%
UACC-257
  Growth Percent: 55.20%
UACC-62
  Growth Percent: 69.45%
UO-31
  Growth Percent: 67.05%
